Like-named read-outs stand apart in the source and are kept apart here. Starred links: 1 amine or outer side, 2 acyl side, 3 side chain; linkers in the order of their positions; H or OH if unused. Positions of bridges follow the written chain, without caps; N, C: chain ends. Non-standard residues stand in square brackets, D forms with d. Residues, ends and D or L forms follow the SMILES beside them. ξ: configuration not given here. Phe(3-Me) = Cc1cccc(C[C@H](N)C(=O)O)c1; γGlu = O=C(O)[C@H](CCC(=O)[*:2])N[*:1]; 2Nal = N[C@@H](Cc1ccc2ccccc2c1)C(=O)O; βAsp = O=C(O)[C@H](CC(=O)[*:2])N[*:1]; NMeL = CN[C@@H](CC(C)C)C(=O)O; Ahp(2) = CCCCC[C@H](N)C(=O)O; NMeNle = CCCC[C@H](NC)C(=O)O; Tle = CC(C)(C)[C@H](N)C(=O)O; NMeS = CN[C@@H](CO)C(=O)O; NHexGly = CCCCCCNCC(=O)O; Nle = CCCC[C@H](N)C(=O)O; Orn = NCCC[C@H](N)C(=O)O; Aun = NCCCCCCCCCCC(=O)O; Dab = NCC[C@H](N)C(=O)O; Nva = CCC[C@H](N)C(=O)O; ξD = NC(CC(=O)O)C(=O)O; AEEA = NCCOCCOCC(=O)O
Molecular target: T1, mouse VISTA (mVISTA) (Mus musculus, UniProt Q9D659)
T1 construct: expressed in transfected cells; host or cells: Human embryonic kidney 293T cells
T1 sequence (Q9D659 33-308): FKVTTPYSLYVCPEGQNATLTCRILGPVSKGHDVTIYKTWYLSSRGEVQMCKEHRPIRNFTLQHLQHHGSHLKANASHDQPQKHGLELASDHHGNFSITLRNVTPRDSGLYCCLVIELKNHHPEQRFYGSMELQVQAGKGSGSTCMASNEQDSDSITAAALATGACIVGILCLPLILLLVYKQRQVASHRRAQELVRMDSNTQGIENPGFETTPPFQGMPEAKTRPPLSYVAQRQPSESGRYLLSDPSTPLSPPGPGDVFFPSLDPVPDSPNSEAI
Experiment: Cell-Based Binding High-Content Assay For mVISTA (HC CBA mVISTA)
In short: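 Competition of compound with a biotinylated peptide (final 2 nM, 30 min at RT) for binding to mVISTA on 293T cells, run under no-wash or wash (1 h compound preincubation then removal) formats. Readout by Alexa 647–streptavidin imaging on a high-content platform; four-parameter logistic fit gave IC50.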

[1] = cell-based binding high-content assay, read-out: HC CBA miPrISTA IC50
[2] = 293T cells expressing mouse VISTA, competition with biotinylated peptide (2 nM), read-out: HC CBA mVISTA IC50

CCCCCCN1CC(=O)N[C@@H](Cc2ccc(O)cc2)C(=O)N[C@@H](CCCC)C(=O)N[C@@H](CC(N)=O)C(=O)N[C@@H](CCCNC(=N)N)C(=O)N(C)[C@@H](CC(C)C)C(=O)N[C@@H](CCCCC)C(=O)N2CCC[C@H]2C(=O)N[C@@H](C(C)C)C(=O)N[C@@H](CO)C(=O)N[C@H](C(=O)NCCOCCOCC(=O)N[C@@H](CC(=O)O)C(=O)NCCOCCOCC(=O)NCCCCCCCCCCC(=O)O)CSCC(=O)N[C@@H](Cc2ccc3ccccc3c2)C(=O)N[C@@H](Cc2ccc(O)cc2)C(=O)N[C@@H](CC(=O)O)C1=O [compound 2313] ({CH2CO}-[2Nal]YD[NHexGly]Y[Nle]NR[NMeL][Ahp(2)]PVSC[AEEA]D[AEEA][Aun]-OH; thioether N-14)
IC50 [1]: 0.0281 µM

CCCCCCN1CC(=O)N[C@@H](Cc2ccc(O)cc2)C(=O)N[C@@H](CCCC)C(=O)N[C@@H](CC(N)=O)C(=O)N[C@@H](CCCNC(=N)N)C(=O)N(C)[C@@H](CCCC)C(=O)N[C@@H](CCCCC)C(=O)N2CCC[C@H]2C(=O)N[C@@H](C(C)C)C(=O)N[C@@H](CC(=O)O)C(=O)N[C@H](C(=O)N[C@@H](CCN)C(=O)N[C@@H](CCC(N)=O)C(=O)O)CSCC(=O)N[C@@H](Cc2ccccc2)C(=O)N[C@@H](Cc2c[nH]c3ccccc23)C(=O)N[C@@H](CC(=O)O)C1=O [compound 1132] ({CH2CO}-FWD[NHexGly]Y[Nle]NR[NMeNle][Ahp(2)]PVDC[Dab]Q-OH; thioether N-14)
IC50 (read-out: HC CBA mVISTA IC50): 0.036 µM

CCCCCCN1CC(=O)N[C@@H](Cc2ccc(O)cc2)C(=O)N[C@@H](CCCC)C(=O)N[C@@H](CC(=O)O)C(=O)N[C@@H](CCCNC(=N)N)C(=O)N(C)[C@@H](CCCC)C(=O)N[C@@H](CCCCC)C(=O)N2CCC[C@H]2C(=O)N[C@@H](C(C)C)C(=O)N[C@@H](CC(=O)O)C(=O)N[C@H](C(=O)NC(CC(=O)O)C(N)=O)CSCC(=O)N[C@@H](Cc2ccccc2)C(=O)N[C@@H](Cc2cccc(C)c2)C(=O)N[C@@H](CC(=O)O)C1=O (some centres unmarked) [compound 1342] ({CH2CO}-F[Phe(3-Me)]D[NHexGly]Y[Nle]DR[NMeNle][Ahp(2)]PVDC[ξD]-NH2; thioether N-14)
IC50 (read-out: HC CBA mVISTA IC50): 0.0125 µM

CCCCCCN1CC(=O)N[C@@H](Cc2ccc(O)cc2)C(=O)N[C@@H](CCCC)C(=O)N[C@@H](CC(N)=O)C(=O)N[C@@H](CCCNC(=N)N)C(=O)N(C)[C@@H](CCCC)C(=O)N[C@@H](CCCCC)C(=O)N2CCC[C@H]2C(=O)N[C@@H](C(C)C)C(=O)N[C@@H](CC(=O)O)C(=O)N[C@H](C(=O)NCC(=O)O)CSCC(=O)N[C@@H](Cc2ccc3ccccc3c2)C(=O)N[C@@H](Cc2c[nH]c3ccccc23)C(=O)N[C@@H](CC(=O)O)C1=O [compound 1245] ({CH2CO}-[2Nal]WD[NHexGly]Y[Nle]NR[NMeNle][Ahp(2)]PVDCG-OH; thioether N-14)
IC50 (cell-based binding high-content assay, mVISTA, the 15th table, read-out: HC CBA mVISTA IC50): 0.0062 µM

CCCCCCN1CC(=O)N[C@@H](Cc2ccc(O)cc2)C(=O)N[C@@H](CC(C)C)C(=O)N[C@@H](CC(N)=O)C(=O)N[C@@H](CCCNC(=N)N)C(=O)N(C)[C@@H](CCCC)C(=O)N[C@@H](CCCCC)C(=O)N2CCC[C@H]2C(=O)N[C@@H](C(C)(C)C)C(=O)N[C@@H](CO)C(=O)N[C@H](C(=O)N[C@@H](CC(=O)NCCOCCOCC(=O)N[C@@H](CC(=O)O)C(=O)NCCOCCOCC(=O)NCCCCCCCCCCC(=O)O)C(=O)O)CSCC(=O)N[C@@H](Cc2ccccc2)C(=O)N[C@@H](Cc2ccc(O)cc2)C(=O)N[C@@H](CC(=O)O)C1=O [compound 2030] ({CH2CO}-FYD[NHexGly]YLNR[NMeNle][Ahp(2)]P[Tle]SC[βAsp][AEEA]D[AEEA][Aun]-OH; thioether N-14)
IC50 (cell-based binding high-content assay, mVISTA, read-out: HC CBA miPr ISTA IC50): 0.0228 µM

CCCCCCN1CC(=O)N[C@@H](Cc2ccc(O)cc2)C(=O)N[C@@H](CCCC)C(=O)N[C@@H](CC(N)=O)C(=O)N[C@@H](CCCNC(=N)N)C(=O)N[C@@H](CC(C)C)C(=O)N[C@@H](CCCCC)C(=O)N2CCC[C@H]2C(=O)N[C@@H](C(C)(C)C)C(=O)N[C@@H](C(C)C)C(=O)N[C@H](C(=O)NCCOCCOCC(=O)N[C@@H](CCC(=O)NCCOCCOCC(=O)NCCCCCCCCCCC(=O)O)C(=O)O)CSCC(=O)N[C@@H](Cc2ccccc2)C(=O)N[C@@H](Cc2ccc(O)cc2)C(=O)N[C@@H](CC(=O)O)C1=O [compound 2234] ({CH2CO}-FYD[NHexGly]Y[Nle]NRL[Ahp(2)]P[Tle]VC[AEEA][γGlu][AEEA][Aun]-OH; thioether N-14)
IC50 (read-out: HC CBA mVISTA IC50): 0.0322 µM

CCCCCCN1CC(=O)N[C@@H](Cc2ccc(O)cc2)C(=O)N[C@@H](CCC)C(=O)NCC(=O)N[C@@H](CCCNC(=N)N)C(=O)N[C@@H](CC(C)C)C(=O)N[C@@H](CCCCC)C(=O)N2CCC[C@H]2C(=O)N[C@@H](C(C)C)C(=O)N[C@@H](CO)C(=O)N[C@H](C(=O)NCC(=O)O)CSCC(=O)N[C@@H](Cc2ccccc2)C(=O)N[C@@H](Cc2ccc(O)cc2)C(=O)N[C@@H](CC(=O)O)C1=O [Example 1061] ({CH2CO}-FYD[NHexGly]Y[Nva]GRL[Ahp(2)]PVSCG-OH; thioether N-14)
IC50 [2]: 0.0463 µM

CCCCCCN1CC(=O)N[C@@H](Cc2ccc(O)cc2)C(=O)N[C@@H](CCCC)C(=O)N[C@@H](CC(N)=O)C(=O)N[C@@H](CCCNC(=N)N)C(=O)N(C)[C@@H](CO)C(=O)N[C@@H](CCCCC)C(=O)N2CCC[C@H]2C(=O)N[C@@H](C(C)C)C(=O)N[C@@H](CC(=O)O)C(=O)N[C@H](C(=O)NCC(=O)O)CSCC(=O)N[C@@H](Cc2ccccc2)C(=O)N[C@@H](Cc2c[nH]c3ccccc23)C(=O)N[C@@H](CC(=O)O)C1=O [Example 1408] ({CH2CO}-FWD[NHexGly]Y[Nle]NR[NMeS][Ahp(2)]PVDCG-OH; thioether N-14)
IC50 (read-out: HC CBA mVISTA IC50): 0.0208 µM

CCCCCCN1CC(=O)N[C@@H](Cc2ccc(O)cc2)C(=O)N[C@@H](CCCC)C(=O)N[C@@H](CC(=O)O)C(=O)N[C@@H](CCCNC(=N)N)C(=O)N[C@@H](CC(C)C)C(=O)N[C@@H](CCCCC)C(=O)N2CCC[C@H]2C(=O)N[C@@H](C(C)C)C(=O)N[C@@H](CC(=O)O)C(=O)N[C@H](C(=O)NCC(=O)O)CSCC(=O)N[C@@H](Cc2ccccc2)C(=O)N[C@@H](Cc2ccc(O)cc2)C(=O)N[C@@H](CC(=O)O)C1=O [Example 1010] ({CH2CO}-FYD[NHexGly]Y[Nle]DRL[Ahp(2)]PVDCG-OH; thioether N-14)
IC50 [2]: 0.0056 µM

CCCCCCN1CC(=O)N[C@@H](Cc2ccc(O)cc2)C(=O)N[C@@H](C(C)C)C(=O)NCC(=O)N[C@@H](CCCNC(=N)N)C(=O)N[C@@H](CC(C)C)C(=O)N[C@@H](CCCCC)C(=O)N2CCC[C@H]2C(=O)N[C@@H](C(C)C)C(=O)N[C@@H](CC(=O)O)C(=O)N[C@H](C(=O)NCCOCCOCC(=O)N[C@@H](CC(=O)O)C(=O)NCCOCCOCC(=O)NCCCCCCCCCCC(=O)O)CSCC(=O)N[C@@H](Cc2ccc3ccccc3c2)C(=O)N[C@@H](Cc2ccc(O)cc2)C(=O)N[C@@H](CC(=O)O)C1=O (stereo in doubt) [compound 2287]
IC50 [1]: 0.0216 µM

CCCCCCN1CC(=O)N[C@@H](Cc2ccc(O)cc2)C(=O)N[C@@H](CCCC)C(=O)N[C@@H](CC(N)=O)C(=O)N[C@@H](CCCNC(=N)N)C(=O)N(C)[C@@H](CCCC)C(=O)N[C@@H](CCCCC)C(=O)N2CCC[C@H]2C(=O)N[C@@H](C(C)C)C(=O)N[C@@H](CC(=O)O)C(=O)N[C@H](C(=O)N[C@@H](CCCN)C(=O)N[C@@H](CC(N)=O)C(=O)O)CSCC(=O)N[C@@H](Cc2ccccc2)C(=O)N[C@@H](Cc2c[nH]c3ccccc23)C(=O)N[C@@H](CC(=O)O)C1=O [compound 1129] ({CH2CO}-FWD[NHexGly]Y[Nle]NR[NMeNle][Ahp(2)]PVDC[Orn]N-OH; thioether N-14)
IC50 (read-out: HC CBA mVISTA IC50): 0.0134 µM

Reference: patent US20240218022A1, “ANTI-VISTA MACROCYCLIC PEPTIDES AND COMPOSITIONS” (BRISTOL-MYERS SQUIBB COMPANY, priority 2022, published 2024)
